Source: paper PMC5638327, “Comparison of bioavailability and antiplatelet action of ticagrelor in patients with ST-elevation myocardial infarction and non-ST-elevation myocardial infarction: A prospective, observational, single-centre study” (PLoS ONE, 2017)

Test: Adverse events during the observation period (12 hours after ticagrelor LD)
Format: in vivo, human (patients with myocardial infarction)
Source text: Between November 2015 and January 2017, a total of 73 consecutive AMI patients (49 STEMI and 24 NSTEMI) were enrolled. The recruitment continued until the minimum required number of patients were enrolled in the less numerous group (NSTEMI). There were no differences in the baseline characteristics between the two groups, except higher mean left ventricle ejection fraction seen in NSTEMI patients at discharge (Table 1). Of note, as expected numerically greater proportion of STEMI patients were treated with morphine, but this difference was statistically insignificant. Adverse events during the observation period (12 hours after ticagrelor LD) were sporadic and mild (STEMI vs. NSTEMI: Thrombolysis in Myocardial Infarction minimal bleeding 6.1% vs. 8.3%, p = 0.92; dyspnea 2.0% vs. 4.2%, p = 0.83; vomiting 4.1% vs. 4.2%, p = 0.56). […]
Ludwika Rydygiera w Bydgoszczy (study
PLATO trial, deﬁnite or probable stent thrombosis approval reference number: KB 617/2015). […]
Thrombolysis In Myocardial Infarction (TIMI) criteria, still being collected, currently no additional data are available besides given in dyspnoea adverse events according to criteria used in the submitted study protocol. […]
Postepy […]
trial is expected to be the ﬁrst study to elucidateKardiol Interwencyjnej 2015;11:259–80. whether STEMI is associated with poorer absorption and 8. Navarese EP, Buffon A, Kozinski M, et al. A critical overview on ticagrelor in acute coronary syndromes. QJM 2013;106:105–15. subsequently weaker antiplatelet action of ticagrelor in 9. Adamski P, Koziński M, Ostrowska M, et al. Overview of pleiotropic comparison with NSTEMI. effects of platelet P2Y12 receptor inhibitors. Thromb Haemost […]
1Department of Principles of Clinical Medicine, Collegium Medicum, Nicolaus Drug Metab Dispos 2010;38:1514–21.
Copernicus University, Bydgoszcz, Poland 11. Husted S, Emanuelsson H, Heptinstall S, et al. Pharmacodynamics, 2Department of Pharmacology and Therapy, Collegium Medicum, Nicolaus pharmacokinetics, and safety of the oral reversible P2Y12 antagonist AZD6140 with aspirin in patients with atherosclerosis: a double-blind
Copernicus University, Bydgoszcz, Poland comparison to clopidogrel with aspirin. Eur Heart J 3Department of Cardiology and Internal Medicine, Collegium Medicum, 2006;27:1038–47.
Nicolaus Copernicus University, Bydgoszcz, Poland 12. Varenhorst C, Eriksson N, Johansson Å, et al. Effect of genetic 4Department of Theoretical Foundations of Biomedical Science and Medical variations on ticagrelor plasma levels and clinical outcomes.
Informatics, Collegium Medicum, Nicolaus Copernicus University, Bydgoszcz, Eur Heart J 2015;36:1901–12.
Poland 13. Teng R, Mitchell P, Butler K. Effect of age and gender on 5Department of Laboratory Medicine, Collegium Medicum, Nicolaus pharmacokinetics and pharmacodynamics of a single ticagrelor dose in healthy individuals. Eur J Clin Pharmacol 2012;68:1175–82.
Copernicus University, Bydgoszcz, Poland 14. Teng R, Mitchell PD, Butler K. Lack of significant food effect on the 6Department of Medicinal Chemistry, Collegium Medicum, Nicolaus pharmacokinetics of ticagrelor in healthy volunteers. J Clin Pharm Copernicus University, Bydgoszcz, Poland Ther 2012;37:4648.– […]

Compound: CCCSc1nc(N[C@@H]2C[C@H]2c2ccc(F)c(F)c2)c2nnn([C@@H]3C[C@H](OCCO)[C@@H](O)[C@H]3O)c2n1 [ticagrelor]
- Thrombolysis in Myocardial Infarction minimal bleeding (NSTEMI patients): 8.3%
- dyspnea (NSTEMI patients): 4.2%
- vomiting (NSTEMI patients): 4.2%
- Thrombolysis in Myocardial Infarction minimal bleeding (STEMI patients): 6.1%
- dyspnea (STEMI patients): 2.0%
- vomiting (STEMI patients): 4.1%
